Data set [1] has as its target T1, filamin-A (FLNA) (Homo sapiens, UniProt P21333).
T1 construct: in a membrane preparation from A7 cells or SK-N-MC cells; endogenous in cells; host or cells: A7 cells or SK-N-MC cells (membrane preparation)
Conditions: higher affinity binding site of the two sites; membrane preparation from A7 or SK-N-MC cells; cited from earlier work.

Data set [2] in a line: pKa analysis, potentiometric titration. The settings on record: 22° C., ISA water (ionic strength 0.15, KCl). The format is physicochemical. As for the experimental part: The Compound titration was performed at 22° C. in ISA water. The weighed amount of TC (2.40 mg) was placed into a titration vial. ISA water (15 mL) was delivered automatically to the vial. The pH value of the solution was adjusted to 3 by adding 0.5 M HCl automatically. The titration with 0.5 M KOH was performed automatically until a pH value of 11.5 was reached. One additional mL of ISA water was added to the titration vial to perform the second titration and third titration, per titration respectively. The datasets for the three titrations were combined in the Refinement Pro program to create a Multiset for pKa calculation.
First, the pKa measurements and calculations for Compound C0105 were performed with the presumption that there were two basic ionizable groups. […] Then the pKa calculations for the Compound were performed with the presumption that there was one basic ionizable group.

Structures are written as SMILES.

Results on 1 compound are retold here after US11370791B2, “Solid polymorphs of a FLNA-binding compound and its hydrochloride salts” (Pain Therapeutics, Inc., priority 2019, dated 2022).

T1 sequence (P21333 whole entry): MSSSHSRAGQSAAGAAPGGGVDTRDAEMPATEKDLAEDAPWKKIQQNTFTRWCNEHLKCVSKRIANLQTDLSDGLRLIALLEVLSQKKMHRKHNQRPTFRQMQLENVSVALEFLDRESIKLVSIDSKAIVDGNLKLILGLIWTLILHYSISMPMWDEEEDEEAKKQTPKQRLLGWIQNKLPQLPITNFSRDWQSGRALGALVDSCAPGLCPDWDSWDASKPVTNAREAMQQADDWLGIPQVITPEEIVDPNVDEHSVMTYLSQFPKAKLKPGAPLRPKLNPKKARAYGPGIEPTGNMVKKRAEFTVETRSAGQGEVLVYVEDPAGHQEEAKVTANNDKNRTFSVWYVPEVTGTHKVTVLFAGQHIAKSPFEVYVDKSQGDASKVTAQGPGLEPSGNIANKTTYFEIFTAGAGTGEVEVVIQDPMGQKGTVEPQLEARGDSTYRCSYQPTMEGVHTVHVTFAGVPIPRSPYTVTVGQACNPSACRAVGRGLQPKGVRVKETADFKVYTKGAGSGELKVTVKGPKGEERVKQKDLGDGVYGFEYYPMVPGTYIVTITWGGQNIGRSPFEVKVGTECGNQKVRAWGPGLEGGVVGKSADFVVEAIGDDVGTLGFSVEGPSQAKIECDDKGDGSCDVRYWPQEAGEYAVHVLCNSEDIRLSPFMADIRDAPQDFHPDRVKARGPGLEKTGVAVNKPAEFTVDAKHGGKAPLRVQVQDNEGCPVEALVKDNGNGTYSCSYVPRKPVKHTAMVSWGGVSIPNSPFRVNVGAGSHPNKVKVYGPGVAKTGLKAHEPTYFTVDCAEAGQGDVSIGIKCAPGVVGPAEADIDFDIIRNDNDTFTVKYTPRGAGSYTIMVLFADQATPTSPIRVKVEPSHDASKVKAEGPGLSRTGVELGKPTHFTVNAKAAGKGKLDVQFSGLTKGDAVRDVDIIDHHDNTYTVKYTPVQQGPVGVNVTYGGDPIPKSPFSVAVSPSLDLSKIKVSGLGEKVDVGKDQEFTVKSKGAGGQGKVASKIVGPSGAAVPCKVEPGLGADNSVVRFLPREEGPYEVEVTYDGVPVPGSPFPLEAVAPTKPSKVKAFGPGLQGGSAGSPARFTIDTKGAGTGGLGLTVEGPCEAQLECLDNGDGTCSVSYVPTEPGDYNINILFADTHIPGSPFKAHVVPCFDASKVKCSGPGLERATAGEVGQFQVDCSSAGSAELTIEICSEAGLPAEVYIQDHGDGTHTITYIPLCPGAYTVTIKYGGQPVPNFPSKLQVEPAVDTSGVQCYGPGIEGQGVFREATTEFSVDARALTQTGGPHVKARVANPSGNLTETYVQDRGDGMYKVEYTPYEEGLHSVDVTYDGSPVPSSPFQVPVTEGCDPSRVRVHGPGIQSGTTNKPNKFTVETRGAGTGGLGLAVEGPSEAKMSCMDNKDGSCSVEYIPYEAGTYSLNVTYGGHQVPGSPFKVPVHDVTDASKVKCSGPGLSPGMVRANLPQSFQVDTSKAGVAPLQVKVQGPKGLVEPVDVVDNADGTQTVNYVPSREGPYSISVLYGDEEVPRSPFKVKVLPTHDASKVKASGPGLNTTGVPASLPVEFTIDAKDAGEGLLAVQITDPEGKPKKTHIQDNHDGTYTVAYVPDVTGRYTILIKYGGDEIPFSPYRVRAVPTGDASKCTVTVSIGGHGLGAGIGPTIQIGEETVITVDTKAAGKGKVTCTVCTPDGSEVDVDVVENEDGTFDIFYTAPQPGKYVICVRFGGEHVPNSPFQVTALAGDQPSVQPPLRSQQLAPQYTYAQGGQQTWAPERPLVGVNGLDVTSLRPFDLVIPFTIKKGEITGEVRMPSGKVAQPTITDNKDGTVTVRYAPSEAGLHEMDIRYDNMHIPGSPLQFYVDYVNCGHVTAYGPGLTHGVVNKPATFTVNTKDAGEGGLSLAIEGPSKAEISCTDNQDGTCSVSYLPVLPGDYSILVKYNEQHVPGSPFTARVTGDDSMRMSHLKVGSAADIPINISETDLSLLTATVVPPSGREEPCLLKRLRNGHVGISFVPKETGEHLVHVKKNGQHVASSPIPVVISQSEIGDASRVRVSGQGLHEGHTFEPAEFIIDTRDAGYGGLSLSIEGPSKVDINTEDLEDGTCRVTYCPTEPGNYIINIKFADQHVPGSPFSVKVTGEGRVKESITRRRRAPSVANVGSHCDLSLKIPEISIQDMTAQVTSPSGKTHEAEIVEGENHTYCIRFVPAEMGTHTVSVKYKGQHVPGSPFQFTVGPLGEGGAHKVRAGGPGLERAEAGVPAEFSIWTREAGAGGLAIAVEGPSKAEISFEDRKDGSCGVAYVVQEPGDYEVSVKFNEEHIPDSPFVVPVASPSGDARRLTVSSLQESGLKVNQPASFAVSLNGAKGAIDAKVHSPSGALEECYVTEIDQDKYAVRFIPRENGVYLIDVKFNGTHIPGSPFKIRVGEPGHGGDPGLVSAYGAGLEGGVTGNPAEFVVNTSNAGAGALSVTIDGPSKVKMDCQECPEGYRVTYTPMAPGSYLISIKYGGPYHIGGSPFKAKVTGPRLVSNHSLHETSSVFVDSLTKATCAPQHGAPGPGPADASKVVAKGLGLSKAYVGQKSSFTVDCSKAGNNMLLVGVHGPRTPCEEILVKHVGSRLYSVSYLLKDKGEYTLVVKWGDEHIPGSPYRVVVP

On to `CN1CCC2(CC1)NCC(=O)N2Cc1ccccc1` [Compound C0105, 1-benzyl-8-methyl-1,4,8-triazaspiro[4.5]-decan-2-one], for which the “EC50, inhibition of [3H]NLX binding” value in data set [1] is given as 10^−12 to 10^−13 M. In addition, the values for the pKa in data set [2] (higher value) and in data set [2] (lower value) were 8 and 1.5, respectively.
